{"source": "patent US5641659A", "about": "“α-l-rhamnosidase for obtaining rhamnose, a process for its preparation and its use” (priority 1992, dated 1997)", "system": "α-L-rhamnosidase from Penicillium sp. DSM 6826", "experiment": "Influence of different substances on the activity of the purified α-L-rhamnosidase", "assay_type": "biochemical", "details": "control = 100", "protocol": "p-Nitrophenyl-α-L-rhamnopyranoside is used as the substrate for detecting the α-L-rhamnosidase activity. 10 mg of this substrate are dissolved in 10 ml of ammonium acetate buffer (pH 5.5, 50 mM). 100 μl of culture filtrate or cell lysates are added to 900 μl of this solution and the mixture is then incubated at 40° C. After 0, 3, 6, 9 and 12 minutes, 200 μl are removed and mixed with 800 μl of 200 mM borate buffer, pH 9. The release-of p-nitrophenol is monitored photometrically at 410 nm; naringinase (following Romero et al. Anal. Biochem. 149 566-571 (1985)) was used as the control.\nThe investigations summarized in the table below were carried out using the purified enzyme.", "data": [{"smiles": "[Cl][Mn][Cl]", "note": "[MnCl2]", "values": [{"measurement": "% activity", "setting": "substance at 2 mM", "result": 27, "unit": "%"}]}, {"smiles": "O=C(O)CN(CCOCCOCCN(CC(=O)O)CC(=O)O)CC(=O)O", "note": "[EGTA, reference compound]", "values": [{"measurement": "% activity", "setting": "substance at 10 mM", "result": 60, "unit": "%"}]}, {"smiles": "[Cl][Cu][Cl]", "note": "[CuCl2]", "values": [{"measurement": "% activity", "setting": "substance at 0.5 mM", "result": 40, "unit": "%"}]}, {"smiles": "[Cl-].[Cl-].[Zn+2]", "note": "[ZnCl2]", "values": [{"measurement": "% activity", "setting": "substance at 2 mM", "result": 65, "unit": "%"}]}, {"smiles": "C[C@@H]1OC(O)[C@H](O)[C@H](O)[C@H]1O", "note": "(single isomer, unassigned) [L-Rhamnose, 6-deoxy-L-mannose]", "values": [{"measurement": "% activity", "setting": "substance at 0.5 M", "result": 51, "unit": "%"}, {"measurement": "% activity", "setting": "substance at 1.0 M", "result": 39.5, "unit": "%"}, {"measurement": "% activity", "setting": "substance at 1.5 M", "result": 26.4, "unit": "%"}]}, {"smiles": "O=S(=O)([O-])[O-].[Fe+2]", "note": "[FeSO4]", "values": [{"measurement": "% activity", "setting": "substance at 0.5 mM", "result": 100, "unit": "%"}]}, {"smiles": "[Cl-].[Cs+]", "note": "[CsCl]", "values": [{"measurement": "% activity", "setting": "substance at 2 mM", "result": 96, "unit": "%"}]}, {"smiles": "[Cl-].[Cl-].[Co+2]", "note": "[CoCl2]", "values": [{"measurement": "% activity", "setting": "substance at 2 mM", "result": 41, "unit": "%"}]}, {"smiles": "O=C(O)CN(CCN(CC(=O)O)CC(=O)O)CC(=O)O", "note": "[EDTA, reference compound]", "values": [{"measurement": "% activity", "setting": "substance at 10 mM", "result": 22, "unit": "%"}]}, {"smiles": "[Ca+2].[Cl-].[Cl-]", "note": "[CaCl2]", "values": [{"measurement": "% activity", "setting": "substance at 20 mM", "result": 127, "unit": "%"}]}, {"smiles": "O=S(=O)([O-])[O-].[Mg+2]", "note": "[MgSO4]", "values": [{"measurement": "% activity", "setting": "substance at 2 mM", "result": 106, "unit": "%"}]}, {"smiles": "[Cl-].[K+]", "note": "[KCl]", "values": [{"measurement": "% activity", "setting": "substance at 100 mM", "result": 69, "unit": "%"}]}]}
